Test systems include ACHN; BT-549; MDA-MB-231; OVCAR-4; MCF7; LOX IMVI; M14; NCI-H226; EKVX; 786-0; CAKI-1; DU-145; Hs-578T; SK-MEL-2; MDA-MB-435; A549; SF-295; SNB-75; HOP-62; UACC-257.
Experiment in all cases: DTP human tumour cell line panel, 48 h

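Five compound concentrations were applied to cells in 96-well plates for 48 hours; endpoints were derived by simple linear interpolation of the resulting dose-response curve. Here, GI50 denotes the concentration required for 50% inhibition of growth.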 The source made the active and inactive calls. No stated cut-off is given here; in the data, active = GI50 up to about 1.1 µM and inactive = higher.

Turning to `Nc1nc(N)c(N=O)c(OCC2CCCCC2)n1`, the GI50 – broadly, the concentration at which growth is held to half of that of the control – is 1.06 µM (active) with ACHN; 7.82 µM (inactive) with BT-549; 5.02 µM (inactive) in the assay on MDA-MB-231; 10 µM (inactive) with OVCAR-4; 4.3 µM (inactive) in the assay with MCF7; 5.53 µM (inactive) in the assay on LOX IMVI. The GI50 with M14 was 8.47 µM (inactive); in the assay with NCI-H226, 9.4 µM (inactive); in the assay on EKVX, 20.5 µM (inactive); with 786-0 it was 11.6 µM (inactive); in the assay on CAKI-1, 7.55 µM (inactive); in the assay with DU-145, 7.45 µM (inactive). Moreover, the GI50 in the assay with Hs-578T was 6.73 µM (inactive); in the assay with SK-MEL-2, 11 µM (inactive); in the assay on MDA-MB-435, 14.3 µM (inactive); with A549, 17.8 µM (inactive); in the assay on SF-295, 13 µM (inactive); in the assay with SNB-75, 5.01 µM (inactive). The GI50 with HOP-62 was 14.6 µM (inactive); with UACC-257, 9.02 µM (inactive).

The record behind these values is ChEMBL document CHEMBL1201862, “PubChem BioAssay data set” (2004).
